Tests used:
[1] = test system: chloroquine-resistant (W2Mef) strain of P. falciparum
Experimental: The W2Mef strain was used for these experiments. […] The following was the protocol for present experiment.
In the present study, Chloroquine-sensitive (3D7) strain and chloroquine-resistant (W2Mef) strain were used. The cultures were maintained in vitro using culture media consisting of standard RPMI-1640 supplemented with 10% heat inactivated Human Type O^+ Serum, 3.6% NaHCO3 at a hematocrit of 4%. All the assays were carried out in 96 well, flat bottom microtitre plates. For the synchronization of cultures, 5% sorbitol was used. The growth of the parasite was measured with incorporation of Hypoxanthine. A 200 μl volume of the culture parasite was added to each well initially. Different antimalarial compounds at varied concentrations were added to the wells. All the compounds were tested on both chloroquine-sensitive and chloroquine resistant strains. The plates were then placed in an airtight chamber and flushed with the gas mixture (5% CO2, 5% O2 and 90% N2). The plates were finally stored in an incubator at 37° C. for 24 hours.
At the end of the incubation period, 5 μl of diluted ^3H-Hypoxanthine—to a final concentration of 1 μCi—was added to each well. The plates were then returned to the airtight chamber and then flushed with the above gas mixture and incubated for an additional 24 hours. The plates were then stored at −70° C. until required for detection of incorporated radioactivity. When necessary, the plates were thawed and the cells were harvested onto filter-mats. These filter-mats were then dried and sealed.

P. falciparum = P. falciparum in vitro culture, parasitemia by Giemsa stained smear after 48 hrs; format: cell-based, Plasmodium falciparum; conditions: for inhibition of growth of P. falciparum: 10 μM concentration, 48 hrs incubation at 37° C.
Experimental: Selective enrichment of activity was monitored at every step using P. falciparum culture for in vitro studies.
Zinc complex of L-proline was dissolved in normal saline and filter sterilized. The compound was added to the parasite culture at different concentrations ranging from 1- 10 μM. The compound was tested at the indicated doses using the experimental protocol as described below:
Protocol for Testing the Effect of Drug on P. falciparum for In Vitro Studios
The P. falciparum cultures were synchronized at first by sorbitol treatment. The compound of various concentrations was added to the 200 μl of synchronized P. falciparum culture (1% parasitemia). The parasitemia was checked by making Giemsa stained smear after 48 hrs of incubation at 37° C.

[2] = test system: 3D7 strain of P. falciparum; conditions: light microscope (FIG. 3)
Experimental: In this experiment, slides were prepared, stained with Giemsa and examined under a light microscope. Representative pictures are show in FIG. 3.

Plasmodium yeoeli = test system: Plasmodium yeoeli
From the text: For these experiments, the mouse malaria parasite Plasmodium yeoeli was used as this strain is considered to be closer to human parasite, P. falciparum. Groups of eight mice each were infected with 10^6 parasites/mouse through an intra-peritoneal injection. […] The drug was given once a day for a total period of six days. The mice were then left alone for an additional period of three days, after which the number of survivors were counted (i.e. at […] after infection). The results are shown here in FIG. 5. Group 1 represents a control group of uninfected mice, with no drug given. Group 3 represents the group of infected mice, again with no drug given (i.e. vehicle only).

P. berghei = conditions: about 1 mg to 50 mg/kg
Experimental: BALB/c mice (4-6 weeks old) were infected with 10^5 P. berghei parasites/mouse. […] After four days of infection, various concentrations of compound, at the doses of 10 mg/kg (Group 2) and 20 mg/kg (Group 3) body weight was injected to the mice. The control group (Group 1) indicates the group of mice infected with the parasite, but without any drug (i.e. vehicle only). Group 4 represents a group of infected mice treated with Pyrimethamine (at 20 mg/kg body weight) using an identical treatment regimen. Each group contained ten mice and the parasitemia levels—obtained from blood smears—are given as a percentage of that obtained in untreated mice (FIG. 4).

W2Mef = conditions: FIG. 8

Compound: CCN(CC)CCCC(C)Nc1ccnc2cc(Cl)ccc12 (centres unmarked) [chloroquine, Chloroquine, reference compound]
- increase in the IC50 value for chloroquine, W2Mef compared with 3D7 strain ([1]; FIG. 6): near sevenfold increase

Compound: Zinc complex of L-proline [PIZ2]
- inhibition of growth of P. falciparum (P. falciparum): > 80%
- inhibits growth of P. facliparum (P. falciparum; about 5 μM to 10 μM): about 100%
- effect on the parasite in stained slides [2]: significant disintegration of the parasite
- inhibits growth of P. yeoeli (Plasmodium yeoeli; about 1 mg to 50 mg/Kg): about 90%
- percentage of survivors (Plasmodium yeoeli; oral 20 mg/kg body weight once a day for six days, counted twelve days after infection): 88%
- potency against chloroquine-sensitive versus chloroquine-resistant strain ([1]; dose response analysis, 3D7 and W2Mef (FIG. 7)): remained identical
- activity against the chloroquine resistant strain-W2Mef ([1]; preliminary experiments and dose response analysis): active
- inhibits growth of P. berghei (P. berghei): about 80%
- manner of action on W2Mef (W2Mef): direct killing

Compound: Zinc complexes of L-histidine [Zinc complex of L-histidine]
- inhibition of growth of P. falciparum (P. falciparum): ~85%

— patent publication US20050090480A1, “Use of selected amino acid-zinc complexes as anti-malarials” (Council of Scientific & Industrial Research, priority 2003, published 2005)
